Assay results reported in US4073885A (The United States of America as represented by the …, priority 1976, dated 1978).

How the values were obtained:
opiate receptor [1] = assay: Brain enzymatic inactivation as assessed by opiate receptor binding inhibition
Protocol: Male rats weighing 180-220 g (Sprangue-Dawley) were decapitated and each brain with the cerebellum removed was homogenized in 150 ml of ice-cold standard buffer (0.05 M Tris-HCl, ph 7.4 at 37°). After centrifugation at 4° at 12,000 × g, the membranes were reconstituted in standard buffer. After recentrifugation, each brain was suspended in 10 ml of the standard buffer.
Aliquots of the freshly prepared membrane preparation (100 μl) were incubated for 1 hr at 0° with 100 mM NaCl in a final volume of 0.5 ml with ^3 H!naloxone (Amersham-Searle, 34 Ci/mmol) in a concentration of 1.3 nM (20,000 cpm). After rapid filtration and washing with two 7-ml portions of ice-cold standard buffer, membrane-laden filters were transferred and counted at 40-45% efficiency at least 6 hours after shaking with detergent scintillation fluor (Aquasol, New England Nuclear).
The ability of the blood inhibitory factor eluted from the thin-layer plate to be degraded by enzymes present in brain was examined by incubating the blood substance with membranes or supernatant fluid from rat brain, terminating the enzyme action by boiling, and subsequently adding the product to the opiate receptor assay (see Table 1).
Rat brains were homogenized in 100 volumes (wt/vol) of standard buffer an
the particulate fraction and supernatant fluid were obtained by
centrifugation for 10 min. at 40,000 × g. After incubation under th
specified conditions in a total volume of 1 ml with met-enkephalin or
the supernatant fluid were assessed for inhibition in the standard opiate

opiate receptor [2] = assay: Opiate receptor assay ([3H]naloxone binding, rapid filtration, rat brain membranes); details: 100 nM
[3] = Chang et al., cited from earlier work
rat = assay: Assessment of analgesia: rat tail-flick test after micro-injection into periaqueductal gray matter; assay type: in vivo
Protocol: Eight rats were stereotaxically implanted with chronic indwelling cannulae guides constructed from 23 gauge TW stainless steel tubing. […] Testing was initiated approximately 1 week following surgery. The antinociceptive actions of morphine and anodynin were assessed using a modification of the D'Armour and Smith paradigm in which the latency for a rat to remove its tail from under a radiant heat source is measured in seconds. Baseline "tail-flick" latencies were always determined approximately 30 minutes prior to a drug or control injection by four trials separated by 10 sec.
The solutions were injected into the central gray matter with 30 guage injectors which extended 2 mm past the tip of the guide cannula. The injection rate was 15 μl/min. Testing for antinociception was initiated immediately after an injection. Animals were tested at 1-min. intervals for 5 min. and then at 10, 15, 30, and 60 min. At the end of the study, all animals were sacrificed and their brains were prepared following standard histological procedures to localize cannulae placements.

CSCC[C@H](NC(=O)[C@H](Cc1ccccc1)NC(=O)CNC(=O)CNC(=O)[C@@H](N)Cc1ccc(O)cc1)C(=O)O [Net-Enkephalin, H-Tyr-Gly-Gly-Phe-Met-OH]
% Inhibition Stereospecific Binding (opiate receptor [1]; pre-incubation: Buffer, 1 hr, 37°): 65%
% Inhibition Stereospecific Binding (opiate receptor [1]; pre-incubation: rat brain particulate fraction, 0.25 hr, 37°): 39%
% Inhibition Stereospecific Binding (opiate receptor [1]; pre-incubation: rat brain particulate fraction, 1 hr, 0°): 65%
% Inhibition Stereospecific Binding (opiate receptor [1]; pre-incubation: rat brain particulate fraction, 1 hr, 37°): 2%
% Inhibition Stereospecific Binding (opiate receptor [1]; pre-incubation: rat brain supernatant fluid, 1 hr, 37°): 1%

C=CCN1CC[C@@]23CCCC[C@@H]2[C@@H]1Cc1ccc(O)cc13 [dextrallorphan]
effect on 3H-naloxone binding (control incubation) (opiate receptor [2]): did not significantly reduce binding

CC(C)C[C@H](NC(=O)[C@H](Cc1ccccc1)NC(=O)CNC(=O)CNC(=O)[C@@H](N)Cc1ccc(O)cc1)C(=O)O [enkephalin]
destruction in the brain [3]: rapidly destroyed
time after micro-injection at which analgesia disappears completely [3]: 1 to 2 min
dose required to elicit analgesia relative to morphine ([3]; micro-injection): at least 40 times
Loss of opiate receptor inhibitory activity by brain enzymes (opiate receptor [1]; incubation with membranes or supernatant fluid from rat brain): completely and rapidly reversed

CN1CC[C@]23c4c5ccc(O)c4O[C@H]2[C@@H](O)C=C[C@H]3[C@H]1C5 [morphine]
antinociceptive action after pretreatment with naloxone (rat; 20 mg/kg naloxone intraperitoneally, 15 min prior): blocked
behavioral effect (immobility) (rat; central gray micro-injection in rats): stuperous immobility
